Measurements: US6908930B2, “4-substituted 7-AZA-indolin-2-ones and their use as protein kinase inhibitors” (Sugen, Inc., priority 1999, dated 2005)
Counter-ions that a name gives are not always drawn.

Target: T1, human cdk2/cyclin A (Homo sapiens, UniProt P24941)
T1 construct: made in house; host or cells: Sf9 (baculovirus)
Assay: Assay for inhibition of CDK2 (Scintillation Proximity Assay)
Assay type: biochemical
Details: read-out: cdk2SPA IC50
Method: Using the following reagents, supplies, and method, the ability of compounds of the invention to assay for modulation of the in vitro kinase activity of human cdk2/cyclin A in a Scintillation Proximity Assay (SPA).
Activated cdk2/cyclin A enzyme complex is purified from Sf9 cells and stored at −80° C. in 200 μL aliquots. Human cdk2/cyclin A protein is expressed, activated, and purified from baculovirus infected sf9 cells as described previously. (J. Mol. Biol., 230:1317-1319 (1993)).
The substrate is a biotinylated peptide substrate (Debtide), which is a peptide biotin-X-[…] dissolved in dH2O at a concentration of 5 mg/mL and stored at −80° C. in 100 μL aliquots.
The Peptide/ATP mixture is prepared by mixing 9.979 mL dH2O with 0.00125 mL of cold 10 mM ATP, 0.010 mL of 5 mg/mL Debtide, and 0.010 mL of 10 μCi/mL γ^33P ATP.
A 2.5× kinase buffer is prepared by mixing 8.85 mL of dH2O with 0.625 mL of 1M Tris pH 7.4, 0.25 mL of 1M MgCl2, 0.25 mL of 10% NP40, and 0.025 mL of 1M DTT. Ten milliliters of kinase buffer mix is sufficient for about 4.5 assay plates.
Prepare solutions of inhibitors at 5× the desired final concentration in 5% DMSO. Add 10 μL to each well. For negative controls, add 10 μL 5% DMSO.
Dilute 5 μL of cdk2/cyclin A solution into 2.1 mL 2× kinase buffer (per plate) and add 20 μL enzyme per well. This can be added using a hand pipette or by using the Titertek Multidrop. […] For each freeze/thaw cycle, double the amount of enzyme used in the assay. Also, the enzyme should be thawed quickly (e.g., in the palm of one's hand) and be kept on ice prior to use in the assay. Add 10 μL of 0.5 M EDTA to the negative control wells.
To start kinase reaction, add 20 μL of peptide/ATP mixture using either a hand pipette or the Titertek Multidrop. Let sit on benchtop behind shield for one hour. No shaking is necessary and is not recommended when using Flexiplates (plates are not easy to add/remove from shaker).
Add 200 μL stop solution per well using either the Titertek Multidrop or hand pipette. Let stand at least 10 minutes. Spin plate approximately 2300 rpm for 3-5 minutes. Count plate on Trilux reader.

Q: Which IC50 does the source give for `Cc1cc(C(=O)NCCN2CCOCC2)[nH]c1C=C1C(=O)Nc2nccc(Nc3ccc(F)c(Cl)c3)c21` [Formula 3, 5-[4-(3-CHLORO-4-FLUORO-PHENYLAMINO)-2-OXO-1,2-DIHYDRO-PYRROLO[2,3-B]PYRIDIN-3-YLIDENEMETHYL]-4-METHYL-1H-PYRROLE-2-CARBOXYLIC ACID (2-MORPHOLIN-4-YL-ETHYL)-AMIDE] here?
A: The IC50 was over 10 µM.

Q: `Cc1cc(C(=O)NCCN2CCOCC2)[nH]c1C=C1C(=O)Nc2ncnc(Nc3ccc(F)c(Cl)c3)c21` [Formula 4, 5-[4-(3-CHLORO-4-FLUORO-PHENYLAMINO)-6-OXO-6,7-DIHYDRO-PYRROLO[2,3-D]PYRIMIDIN-5-YLIDENEMETHYL]-4-METHYL-1H-PYRROLE-2-CARBOXYLIC ACID (2-MORPHOLIN-4-YL-ETHYL)-AMIDE HYDROCHLORIDE] was tested. Which IC50 did it give?
A: The IC50 was over 10 µM.

Q: For `Cc1nc[nH]c1C=C1C(=O)Nc2ncnc(Nc3ccc(F)c(Cl)c3)c21` [Formula 8], which IC50 is on record?
A: Its IC50 is 2.62 µM.

Q: How did the IC50 turn out when `Cc1nc[nH]c1C=C1C(=O)Nc2ncnc(N3CCN(C)CC3)c21` [Formula 11] was run?
A: The IC50 was 0.01 µM.

Q: With `Cc1nc[nH]c1C=C1C(=O)Nc2ncnc(N3CCOCC3)c21` [Formula 14] as the molecule, how does the IC50 read?
A: Its IC50 is 0.04 µM.
